# According to PubChem BioAssay AID330 (DTP/NCI, 2004):
# Where “and” joins values, the source holds several entries; their conditions need not be identical. Equal entries are not always repeated. Inconclusive results and toxic doses are left out.
# System: P388 leukemia ip, CD2F1 mice, survival T/C
# Assay: NCI In Vivo Anticancer Drug Screen. Data for tumor model P388 Leukemia (intraperitoneal) in CD2F1 (CDF1) mice
# Details: higher = longer survival
# Procedure, shortened: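 Mice carrying the transplanted tumor received test compound or vehicle. Survival was recorded in each group, and the value is the treated-group measurement divided by that of the vehicle-treated control group.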
# [1] = endpoint: median survival time, dose: 50.0 mg/kg/injection, schedule: Q01DX005 (ip), vehicle: saline with Tween-80
# [2] = endpoint: median survival time, dose: 100.0 mg/kg/injection, schedule: Q01DX005 (ip), vehicle: saline with Tween-80
# [3] = endpoint: median survival time, dose: 200.0 mg/kg/injection, schedule: Q01DX005 (ip), vehicle: saline with Tween-80
smiles,measurement,setting,value
CC1(C)OCC(C2OC3OC(C)(C)OC3C2NN)O1 (stereo unspecified),T/C,[1],95 % of control
same,T/C,[2],98 % of control
same,T/C,[3],100 % of control
C[CH2][Sn]([CH2]C)([CH2]C)[NH]S(=O)(=O)c1ccc(C)cc1,T/C,"endpoint: median survival time, dose: 3.12 mg/kg/injection, schedule: Q01DX009 (ip), vehicle: Klucel (hydroxypropylcellulose) (HPC)",105 % of control
CCCNC(c1ccc(N(CC)CC)cc1)C(Cl)(Cl)Cl (stereo unspecified),T/C,"endpoint: median survival time, dose: 50.0 mg/kg/injection, schedule: Q01DX005 (ip), vehicle: saline",103 % of control
same,T/C,"endpoint: median survival time, dose: 100.0 mg/kg/injection, schedule: Q01DX005 (ip), vehicle: saline",106 % of control
same,T/C,"endpoint: median survival time, dose: 200.0 mg/kg/injection, schedule: Q01DX005 (ip), vehicle: saline",96 % of control
Cn1c(=O)ccc2c(=O)c3c(ccc4ccccc43)oc21,T/C,[1],94 % of control
same,T/C,[2],92 % of control
same,T/C,[3],91 % of control
COc1cc(CSc2ccccc2)cc(OC)c1N,T/C,"endpoint: median survival time, dose: 50.0 mg/kg/injection, schedule: Q01DX005 (ip), vehicle: Klucel (hydroxypropylcellulose) (HPC)",95 % of control
same,T/C,"endpoint: median survival time, dose: 100.0 mg/kg/injection, schedule: Q01DX005 (ip), vehicle: Klucel (hydroxypropylcellulose) (HPC)",100 % of control
same,T/C,"endpoint: median survival time, dose: 200.0 mg/kg/injection, schedule: Q01DX005 (ip), vehicle: Klucel (hydroxypropylcellulose) (HPC)",99 % of control
Fc1ccc(Nc2c3ccccc3nc3ccccc23)cc1,T/C,"endpoint: median survival time, dose: 12.5 mg/kg/injection, schedule: Q01DX009 (ip), vehicle: saline with Tween-80",110 % of control
same,T/C,"endpoint: median survival time, dose: 25.0 mg/kg/injection, schedule: Q01DX009 (ip), vehicle: saline with Tween-80",120 % of control
CCCC12C=C(OC)C(=O)C(C1=O)C(c1ccc3c(c1)OCO3)C2C (stereo unspecified),T/C,"endpoint: median survival time, dose: 8.75 mg/kg/injection, schedule: Q01DX005 (ip), vehicle: Klucel (hydroxypropylcellulose) (HPC)",118 % of control
same,T/C,"endpoint: median survival time, dose: 17.5 mg/kg/injection, schedule: Q01DX005 (ip), vehicle: Klucel (hydroxypropylcellulose) (HPC)",110 % of control
same,T/C,"endpoint: median survival time, dose: 35.0 mg/kg/injection, schedule: Q01DX005 (ip), vehicle: Klucel (hydroxypropylcellulose) (HPC)",100 % of control
Nc1ccccc1-c1nnc(-c2ccccc2)o1,T/C,"endpoint: median survival time, dose: 60.0 mg/kg/injection, schedule: Q01DX005 (ip), vehicle: saline with Tween-80",100 % of control
same,T/C,"endpoint: median survival time, dose: 120.0 mg/kg/injection, schedule: Q01DX005 (ip), vehicle: saline with Tween-80",89 % of control
same,T/C,"endpoint: median survival time, dose: 240.0 mg/kg/injection, schedule: Q01DX005 (ip), vehicle: saline with Tween-80",86 % of control
C[N+]1(C2CCCCC2c2cccc(O)c2)CCCC1 (stereo unspecified),T/C,"endpoint: median survival time, dose: 0.39 mg/kg/injection, schedule: Q01DX009 (ip), vehicle: saline",98 % of control
same,T/C,"endpoint: median survival time, dose: 0.79 mg/kg/injection, schedule: Q01DX009 (ip), vehicle: saline",104 % of control
same,T/C,"endpoint: median survival time, dose: 1.56 mg/kg/injection, schedule: Q01DX009 (ip), vehicle: saline",98 % of control
O=S(=O)(O)c1ccc(-c2ccc(S(=O)(=O)O)cc2)cc1 (tested in a mixture with another compound),T/C,"endpoint: mean survival time, dose: 20.0 mg/kg/injection, schedule: Q01DX009 (ip), vehicle: saline",253 % of control
same,T/C,"endpoint: mean survival time, dose: 40.0 mg/kg/injection, schedule: Q01DX009 (ip), vehicle: saline",232 % of control
same,T/C,"endpoint: median survival time, dose: 12.5 mg/kg/injection, schedule: Q01DX009 (ip), vehicle: saline sonified",154 % of control
same,T/C,"endpoint: median survival time, dose: 20.0 mg/kg/injection, schedule: Q01DX009 (ip), vehicle: saline",231 % of control
same,T/C,"endpoint: median survival time, dose: 25.0 mg/kg/injection, schedule: Q01DX009 (ip), vehicle: saline sonified",150 % of control
same,T/C,"endpoint: median survival time, dose: 33.0 mg/kg/injection, schedule: Q04DX003 (ip), vehicle: saline",165 % of control
same,T/C,"endpoint: median survival time, dose: 40.0 mg/kg/injection, schedule: Q01DX009 (ip), vehicle: saline",272 % of control
same,T/C,"endpoint: median survival time, dose: 50.0 mg/kg/injection, schedule: Q01DX009 (ip), vehicle: saline sonified",272 % of control
same,T/C,"endpoint: median survival time, dose: 50.0 mg/kg/injection, schedule: Q04DX003 (ip), vehicle: saline sonified",181 % of control
same,T/C,"endpoint: median survival time, dose: 50.0 mg/kg/injection, schedule: Q04DX003 (ip), vehicle: saline",169 % of control
same,T/C,"endpoint: median survival time, dose: 75.0 mg/kg/injection, schedule: Q04DX003 (ip), vehicle: saline",221 % of control
Cc1cc2nnnn2c2ccccc12,T/C,"endpoint: median survival time, dose: 50.0 mg/kg/injection, schedule: Q01DX009 (ip), vehicle: saline",96 % of control
same,T/C,"endpoint: median survival time, dose: 100.0 mg/kg/injection, schedule: Q01DX009 (ip), vehicle: saline",99 % of control
same,T/C,"endpoint: median survival time, dose: 200.0 mg/kg/injection, schedule: Q01DX009 (ip), vehicle: saline",95 % of control
CCn1c2ccccc2c2cc(N=Nc3ccc(O)c4ccccc34)ccc21,T/C,"endpoint: median survival time, dose: 50.0 mg/kg/injection, schedule: Q01DX009 (ip), vehicle: Klucel (hydroxypropylcellulose) (HPC)",105 % of control
same,T/C,"endpoint: median survival time, dose: 100.0 mg/kg/injection, schedule: Q01DX009 (ip), vehicle: Klucel (hydroxypropylcellulose) (HPC)",101 % of control and 106 % of control
same,T/C,"endpoint: median survival time, dose: 200.0 mg/kg/injection, schedule: Q01DX009 (ip), vehicle: Klucel (hydroxypropylcellulose) (HPC)",100 % of control and 102 % of control
NC(=O)c1cnn(CCOS(=O)(=O)O)c1N,T/C,"endpoint: median survival time, dose: 12.5 mg/kg/injection, schedule: Q01DX009 (ip), vehicle: water",103 % of control
same,T/C,"endpoint: median survival time, dose: 25.0 mg/kg/injection, schedule: Q01DX009 (ip), vehicle: water",101 % of control
same,T/C,"endpoint: median survival time, dose: 50.0 mg/kg/injection, schedule: Q01DX009 (ip), vehicle: water",108 % of control
same,T/C,"endpoint: median survival time, dose: 100.0 mg/kg/injection, schedule: Q01DX009 (ip), vehicle: water",107 % of control
same,T/C,"endpoint: median survival time, dose: 200.0 mg/kg/injection, schedule: Q01DX009 (ip), vehicle: water",103 % of control
